We go through 5 molecules from US5395610A, “Agents for potentiating the effects of antitumor agents and combating multiple drug resistance” (Burroughs-Wellcome Co., priority 1989, dated 1995).

The structures appear in SMILES notation. Counter-ions that a name gives are not always drawn.

The test system of one series is Chinese hamster ovary (CHO) cells, drug resistant C5S32. Briefly: In vitro cytotoxicity / potentiation of Actinomycin D in Chinese hamster ovary cells, drug resistant C5S32 (MTT). Particulars: 1 μM potentiating agent + Act D 0.5 μM; 96 h; fraction of Act D alone (1.00). It is filed as cell-based.
For `CN(C)CC/C=C1\c2cc(Br)ccc2COc2ccc(Br)cc21` [(V), (E)-3-(2,9-Dibromo-6,11-dihydrodibenz [b,e]-oxepin-11-ylidene)-N,N-dimethylpropylamine], the “Synergism with Actinomycin D, normalized absorbance, Drug Resistant C5S32, +ACT D” value amounted to 0.87.

Regarding `CN(C)CCC=C1c2ccccc2COc2ccccc21` [(W), doxepin, reference compound], the “Synergism with Actinomycin D, normalized absorbance, Drug Resistant C5S32, +ACT D” value was 0.86.

For `CCN(CC)CC/C=C1\c2ccccc2COc2ccc(Br)cc21` [(N), (E) -3-(2-Bromo-6,11-dihydrodibenz [b,e]oxepin-11-ylidene)-N, N-diethylpropylamine], the “Synergism with Actinomycin D, normalized absorbance, Drug Resistant C5S32, +ACT D” value is reported as 0.85.

Regarding `C(/CN1CCCC1)=C1\c2ccccc2COc2ccccc21` [(H), hydrochloride], the “Synergism with Actinomycin D, normalized absorbance, Drug Resistant C5S32, +ACT D” value is 0.95.

Regarding `CN(C)CC/C=C1/c2cc(Br)ccc2COc2ccc(Br)cc21` [(U), (Z)-3-(2,9-Dibromo-6,11-dihydrodibenz [b,e]-oxepin-11-ylidene)-N,N-dimethylpropylamine], the “Synergism with Actinomycin D, normalized absorbance, Drug Resistant C5S32, +ACT D” value came out at 0.93.

Staying with this series, now noted: 10 μM potentiating agent + Act D 0.5 μM; 96 h; fraction of Act D alone (1.00).
Take `CN(C)CC/C=C1\c2cc(Br)ccc2COc2ccc(Br)cc21` [(V), (E)-3-(2,9-Dibromo-6,11-dihydrodibenz [b,e]-oxepin-11-ylidene)-N,N-dimethylpropylamine]: the “Synergism with Actinomycin D, normalized absorbance, Drug Resistant C5S32, +ACT D” value turned out to be 0.20.

As for `CN(C)CCC=C1c2ccccc2COc2ccccc21` [(W), doxepin, reference compound], the “Synergism with Actinomycin D, normalized absorbance, Drug Resistant C5S32, +ACT D” value was 0.48.

For the molecule `CCN(CC)CC/C=C1\c2ccccc2COc2ccc(Br)cc21` [(N), (E) -3-(2-Bromo-6,11-dihydrodibenz [b,e]oxepin-11-ylidene)-N, N-diethylpropylamine], the “Synergism with Actinomycin D, normalized absorbance, Drug Resistant C5S32, +ACT D” value is 0.33.

In the case of `C(/CN1CCCC1)=C1\c2ccccc2COc2ccccc21` [(H), hydrochloride], the “Synergism with Actinomycin D, normalized absorbance, Drug Resistant C5S32, +ACT D” value is on record as 0.51.

As to `CN(C)CC/C=C1/c2cc(Br)ccc2COc2ccc(Br)cc21` [(U), (Z)-3-(2,9-Dibromo-6,11-dihydrodibenz [b,e]-oxepin-11-ylidene)-N,N-dimethylpropylamine], the “Synergism with Actinomycin D, normalized absorbance, Drug Resistant C5S32, +ACT D” value was 0.24.

Test system in another series: not listed separately
Described as above. It is filed as cell-based. Conditions: hamster, cho c5s32 cells, 1 μM potentiating agent alone, fraction of untreated cultures (1.00), read-out: Cytotoxicity, normalized absorbance, Drug Resistant C5S32, 0 (no Act D).
Regarding `CN(C)CC/C=C1\c2cc(Br)ccc2COc2ccc(Br)cc21` [(V), (E)-3-(2,9-Dibromo-6,11-dihydrodibenz [b,e]-oxepin-11-ylidene)-N,N-dimethylpropylamine], the viability at 96 h, 1 µM turned out to be 91%.

For the molecule `CN(C)CCC=C1c2ccccc2COc2ccccc21` [(W), doxepin, reference compound], the viability at 96 h, 1 µM was 98%.

As for `CCN(CC)CC/C=C1\c2ccccc2COc2ccc(Br)cc21` [(N), (E) -3-(2-Bromo-6,11-dihydrodibenz [b,e]oxepin-11-ylidene)-N, N-diethylpropylamine], the viability at 96 h, 1 µM is 100%.

On to `C(/CN1CCCC1)=C1\c2ccccc2COc2ccccc21` [(H), hydrochloride], for which the viability at 96 h, 1 µM was found to be 82%.

Regarding `CN(C)CC/C=C1/c2cc(Br)ccc2COc2ccc(Br)cc21` [(U), (Z)-3-(2,9-Dibromo-6,11-dihydrodibenz [b,e]-oxepin-11-ylidene)-N,N-dimethylpropylamine], the viability at 96 h, 1 µM worked out at 94%.

Staying with this series, now noted: hamster, cho c5s32 cells, 10 μM potentiating agent alone, fraction of untreated cultures (1.00), read-out: Cytotoxicity, normalized absorbance, Drug Resistant C5S32, 0 (no Act D).
As for `CN(C)CC/C=C1\c2cc(Br)ccc2COc2ccc(Br)cc21` [(V), (E)-3-(2,9-Dibromo-6,11-dihydrodibenz [b,e]-oxepin-11-ylidene)-N,N-dimethylpropylamine], the viability at 96 h, 10 µM was found to be 75%.

For `CN(C)CCC=C1c2ccccc2COc2ccccc21` [(W), doxepin, reference compound], the viability at 96 h, 10 µM stood at 55%.

For the molecule `CCN(CC)CC/C=C1\c2ccccc2COc2ccc(Br)cc21` [(N), (E) -3-(2-Bromo-6,11-dihydrodibenz [b,e]oxepin-11-ylidene)-N, N-diethylpropylamine], the viability at 96 h, 10 µM worked out at 80%.

Take `C(/CN1CCCC1)=C1\c2ccccc2COc2ccccc21` [(H), hydrochloride]: the viability at 96 h, 10 µM was 53%.

Take `CN(C)CC/C=C1/c2cc(Br)ccc2COc2ccc(Br)cc21` [(U), (Z)-3-(2,9-Dibromo-6,11-dihydrodibenz [b,e]-oxepin-11-ylidene)-N,N-dimethylpropylamine]: the viability at 96 h, 10 µM was found to be 74%.

Test system in the next series: not listed separately
Put plainly: in vitro. It counts as cell-based, Chinese hamster. Conditions: hamster, cho auxb1 cells.
For `CN(C)CC/C=C1\c2cc(Br)ccc2COc2ccc(Br)cc21` [(V), (E)-3-(2,9-Dibromo-6,11-dihydrodibenz [b,e]-oxepin-11-ylidene)-N,N-dimethylpropylamine], the viability at 96 h, 1 µM worked out at 86% and the viability at 96 h, 10 µM amounted to 77%.

In turn, `CN(C)CCC=C1c2ccccc2COc2ccccc21` [(W), doxepin, reference compound] returned a viability at 96 h, 1 µM of 100% and a viability at 96 h, 10 µM of 100%.

For `CCN(CC)CC/C=C1\c2ccccc2COc2ccc(Br)cc21` [(N), (E) -3-(2-Bromo-6,11-dihydrodibenz [b,e]oxepin-11-ylidene)-N, N-diethylpropylamine], the viability at 96 h, 1 µM came to 86% and the viability at 96 h, 10 µM was determined as 83%.

As to `C(/CN1CCCC1)=C1\c2ccccc2COc2ccccc21` [(H), hydrochloride], the viability at 96 h, 1 µM is 100% and the viability at 96 h, 10 µM is 94%.

With `CN(C)CC/C=C1/c2cc(Br)ccc2COc2ccc(Br)cc21` [(U), (Z)-3-(2,9-Dibromo-6,11-dihydrodibenz [b,e]-oxepin-11-ylidene)-N,N-dimethylpropylamine], the viability at 96 h, 1 µM came to 84% and the viability at 96 h, 10 µM amounted to 79%.
